Activity calls are given as the source filed them. No cut-off for these calls is given here.
Tests used:
[1] = system: HEL; assay: Antiproliferative activity against HEL cells; details: Homo sapiens
[2] = system: K562; assay: Antiproliferative activity against human K562 cells
[3] = system: THP-1; assay: Antiproliferative activity against human THP-1 cells
[4] = target: T1, Signal transducer and activator of transcription 1-alpha/beta (Homo sapiens) (UniProt P42224); assay: Inhibition of STAT1 phosphorylation in HEL cells at 1 uM incubated for 24 hrs by Western blotting analysis; format: cell-based
T1 sequence (whole entry): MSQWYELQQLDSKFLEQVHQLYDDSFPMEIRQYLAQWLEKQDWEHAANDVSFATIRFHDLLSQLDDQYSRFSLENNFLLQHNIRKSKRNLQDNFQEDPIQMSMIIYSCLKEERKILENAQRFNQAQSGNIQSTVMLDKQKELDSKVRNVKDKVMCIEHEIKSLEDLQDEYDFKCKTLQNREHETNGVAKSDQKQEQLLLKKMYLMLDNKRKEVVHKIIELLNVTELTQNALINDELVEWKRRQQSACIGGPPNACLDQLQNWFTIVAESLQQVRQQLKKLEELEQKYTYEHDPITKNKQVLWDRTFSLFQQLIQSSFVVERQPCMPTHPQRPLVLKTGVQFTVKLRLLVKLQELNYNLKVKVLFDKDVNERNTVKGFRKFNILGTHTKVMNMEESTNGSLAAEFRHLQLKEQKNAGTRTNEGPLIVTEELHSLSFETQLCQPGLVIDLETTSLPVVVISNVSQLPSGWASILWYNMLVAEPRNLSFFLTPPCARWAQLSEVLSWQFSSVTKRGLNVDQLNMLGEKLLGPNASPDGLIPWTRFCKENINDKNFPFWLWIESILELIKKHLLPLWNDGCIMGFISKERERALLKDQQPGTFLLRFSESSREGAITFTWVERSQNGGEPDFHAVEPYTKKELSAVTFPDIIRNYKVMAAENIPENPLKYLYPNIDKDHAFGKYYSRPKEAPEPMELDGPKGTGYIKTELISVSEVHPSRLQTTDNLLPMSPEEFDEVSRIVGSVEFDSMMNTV

[5] = target: Signal transducer and activator of transcription 3 (Homo sapiens) (UniProt P40763); assay: Inhibition of STAT3 phosphorylation in HEL cells at 1 uM incubated for 24 hrs by Western blotting analysis; format: cell-based
Chain of Signal transducer and activator of transcription 3 (Homo sapiens) (P40763 whole entry): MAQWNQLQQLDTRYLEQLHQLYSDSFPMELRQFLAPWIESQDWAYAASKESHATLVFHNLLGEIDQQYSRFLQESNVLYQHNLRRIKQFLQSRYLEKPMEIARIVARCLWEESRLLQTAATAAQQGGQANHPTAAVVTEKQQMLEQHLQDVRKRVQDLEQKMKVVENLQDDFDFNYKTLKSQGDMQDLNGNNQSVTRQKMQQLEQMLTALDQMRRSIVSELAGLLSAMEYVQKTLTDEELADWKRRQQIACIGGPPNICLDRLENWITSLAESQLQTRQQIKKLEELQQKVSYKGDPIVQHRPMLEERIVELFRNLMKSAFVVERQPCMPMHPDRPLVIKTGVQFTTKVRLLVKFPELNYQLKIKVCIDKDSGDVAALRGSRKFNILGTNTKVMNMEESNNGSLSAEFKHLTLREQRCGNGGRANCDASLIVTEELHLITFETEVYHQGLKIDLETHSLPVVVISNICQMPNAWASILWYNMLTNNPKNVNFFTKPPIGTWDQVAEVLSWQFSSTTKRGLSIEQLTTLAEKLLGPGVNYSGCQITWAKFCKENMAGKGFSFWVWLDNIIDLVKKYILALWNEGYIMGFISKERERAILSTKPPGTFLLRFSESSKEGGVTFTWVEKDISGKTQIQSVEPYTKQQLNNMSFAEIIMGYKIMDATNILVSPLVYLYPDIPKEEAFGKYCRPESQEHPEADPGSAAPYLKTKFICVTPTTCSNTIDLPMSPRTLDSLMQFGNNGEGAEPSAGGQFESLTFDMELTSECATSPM

[6] = target: T1, Signal transducer and activator of transcription 1-alpha/beta (Homo sapiens); assay: Inhibition of STAT1 phosphorylation in HEL cells at 1 uM pretreated with momelotinib followed by compound addition and measured after 24 hrs by Western blotting analysis; format: cell-based
[7] = target: Signal transducer and activator of transcription 3 (Homo sapiens) (UniProt P40763); assay: Inhibition of STAT3 phosphorylation in HEL cells at 1 uM pretreated with momelotinib followed by compound addition and measured after 24 hrs by Western blotting analysis; format: cell-based
[8] = target: T1, Signal transducer and activator of transcription 1-alpha/beta (Homo sapiens); assay: Inhibition of STAT1 phosphorylation in HEL cells at 1 uM pretreated with MG132 followed by compound addition and measured after 24 hrs by Western blotting analysis; format: cell-based
[9] = target: Signal transducer and activator of transcription 3 (Homo sapiens) (UniProt P40763); assay: Inhibition of STAT3 phosphorylation in HEL cells at 1 uM pretreated with MG132 followed by compound addition and measured after 24 hrs by Western blotting analysis; format: cell-based

Row | IC50 [2] | IC50 [3] | inhibition [4] | inhibition [5] | inhibition [6] | inhibition [7] | inhibition [8] | inhibition [9] | SMILES | IC50 [1]
1 | 45.1 µM | > 50 µM |  |  |  |  |  |  | N#CCNC(=O)c1ccc(-c2ccnc(Nc3ccc(N4CCC(C(=O)NCCCC#Cc5cccc6c5C(=O)N(C5CCC(=O)NC5=O)C6=O)CC4)cc3)n2)cc1 (stereo not given) | 37.1 µM
2 | > 50 µM | > 50 µM |  |  |  |  |  |  | N#CCNC(=O)c1ccc(-c2ccnc(Nc3ccc(N4CCC(C(=O)NCCCCCC#Cc5cccc6c5C(=O)N(C5CCC(=O)NC5=O)C6=O)CC4)cc3)n2)cc1 (stereo not given) | > 50 µM
3 | 6.1 µM | 10.5 µM | Active | Active | inactive | inactive | inactive | inactive | N#CCNC(=O)c1ccc(-c2ccnc(Nc3ccc(N4CCC(C(=O)NCCCCC#Cc5cccc6c5C(=O)N(C5CCC(=O)NC5=O)C6=O)CC4)cc3)n2)cc1 (stereo not given) | 1.3 µM

— ChEMBL document CHEMBL5576072, “Discovery of a potent and selective JAK1-targeting PROTAC degrader with anti-tumor activities” (Bioorg Med Chem Lett, 2024)
